Experimental data published in patent US20250296971A1, “GASTRIC INHIBITORY PEPTIDE RECEPTOR LIGANDS” (priority 2021, published 2025).
*1 amine or outer side, *2 acyl side, *3 side chain or, on linkers, in order; H or OH if unused. Where a SMILES comes first, the peptide text is derived from it. Bridges are numbered along the chain shown (N, C = ends). [ ]: non-standard residue; d: D form. Trp(5-Cl) = N[C@@H](Cc1c[nH]c2ccc(Cl)cc12)C(=O)O; Phe(3,4-Cl2) = N[C@@H](Cc1ccc(Cl)c(Cl)c1)C(=O)O; Pyridine(2,6-diCH2) = c1cc(C[*:1])nc(C[*:2])c1; Phe(3-Cl) = N[C@@H](Cc1cccc(Cl)c1)C(=O)O; mXylylene = c1cc(C[*:1])cc(C[*:2])c1; pXylylene = c1cc(C[*:2])ccc1C[*:1]; Hyp = O=C(O)[C@@H]1C[C@@H](O)CN1; Suc = O=C(CCC(=O)[*:2])[*:1]; Thp = NC1(C(=O)O)CCOCC1; Aib = CC(C)(N)C(=O)O

Target: T1, GIPR (CHO-K1-hGIPR cells) (Homo sapiens, UniProt P48546)
T1 construct: host or cells: CHO-K1
T1 sequence (P48546 22-466): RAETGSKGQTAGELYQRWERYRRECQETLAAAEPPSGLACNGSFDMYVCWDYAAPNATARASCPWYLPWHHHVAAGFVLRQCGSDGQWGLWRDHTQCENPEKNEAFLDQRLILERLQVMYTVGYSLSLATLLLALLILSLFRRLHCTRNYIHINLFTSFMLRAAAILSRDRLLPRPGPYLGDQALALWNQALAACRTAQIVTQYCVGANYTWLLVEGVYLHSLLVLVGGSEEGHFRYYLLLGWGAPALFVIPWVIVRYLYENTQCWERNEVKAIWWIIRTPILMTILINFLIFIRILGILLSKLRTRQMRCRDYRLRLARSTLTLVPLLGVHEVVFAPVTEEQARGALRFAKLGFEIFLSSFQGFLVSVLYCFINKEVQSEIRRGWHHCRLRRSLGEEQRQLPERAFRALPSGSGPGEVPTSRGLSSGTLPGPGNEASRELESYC
Assay: FACS binding assay
Settings: competition with 20 nM GIP-057, 4° C. for 1 hour, read-out: pIC50 Category (converted)
Method in brief: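 Read-out: flow cytometric median fluorescence intensity, APC/Cy5 channel, plotted vs peptide conc.; 4PL fit → EC50/pEC50 or IC50/pIC50. Cells: CHO-K1-hGIPR, Accutase-detached, 500.000/mL in PBS + 1% FCS. Detection: APC-streptavidin 1 μg/mL, 30 min, on ice.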

IC50 [nM] | SMILES
100 to 794 | CC[C@H](C)[C@@H]1NC(=O)[C@H](CC(C)C)NC(=O)[C@@H](C)NC(=O)[C@@H](NC(=O)[C@@H](CC(C)C)NC(=O)[C@H](CCC(=O)O)NC(=O)[C@@H]2CCCN2C(=O)[C@H](Cc2c[nH]c3ccccc23)NC(=O)[C@H](Cc2c[nH]c3ccccc23)NC(=O)CCC(=O)O)CSCc2cccc(c2)CSC[C@@H](C(N)=O)NC1=O [GIP-318, HO-Succinyl-Trp-Trp-Pro-Glu-leu-[Cys(3MeBn)-ala-Leu-Ile-Cys]-NH2] (Suc-WWPE[dL]C[dA]LIC-NH2; linker 6-10 via mXylylene)
100 to 794 | CC[C@H](C)[C@@H]1NC(=O)[C@H](CC(C)C)NC(=O)C(C)(C)NC(=O)[C@@H](NC(=O)[C@H](CC(C)C)NC(=O)[C@H](CCC(=O)O)NC(=O)[C@@H]2C[C@@H](O)CN2C(=O)[C@H](Cc2c[nH]c3ccccc23)NC(=O)[C@H](Cc2c[nH]c3ccccc23)NC(=O)CCC(=O)O)CSCc2cccc(c2)CSC[C@@H](C(N)=O)NC1=O [GIP-319, HO-Succinyl-Trp-Trp-Hyp-Glu-Leu-[Cys(3MeBn)-Aib-Leu-Ile-Cys]-NH2] (Suc-WW[Hyp]ELC[Aib]LIC-NH2; linker 6-10 via mXylylene)
100 to 794 | CC[C@H](C)[C@@H]1NC(=O)[C@H](CC(C)C)NC(=O)C2(CCOCC2)NC(=O)[C@@H](NC(=O)[C@@H](CC(C)C)NC(=O)[C@H](CCC(=O)O)NC(=O)[C@@H]2C[C@@H](O)CN2C(=O)[C@H](Cc2cccc(Cl)c2)NC(=O)[C@H](Cc2c[nH]c3ccccc23)NC(=O)[C@H](CC(=O)O)NC(C)=O)CSCc2cccc(n2)CSC[C@@H](C(N)=O)NC1=O [GIP-320, Ac-Asp-Trp-Mcf-Hyp-Glu-leu-[Cys(2Lut)-Thp-Leu-Ile-Cys]-NH2] (Ac-DW[Phe(3-Cl)][Hyp]E[dL]C[Thp]LIC-NH2; linker 7-11 via Pyridine(2,6-diCH2))
100 to 794 | CC(=O)N[C@@H](CC(=O)O)C(=O)N[C@@H](Cc1c[nH]c2ccccc12)C(=O)N[C@@H](Cc1c[nH]c2ccc(Cl)cc12)C(=O)N1C[C@H](O)C[C@H]1C(=O)N[C@@H](CCC(=O)O)C(=O)N[C@H](CC(C)C)C(=O)N[C@H]1CSCc2cccc(n2)CSC[C@@H](C(N)=O)NC(=O)[C@H](CO)NC(=O)[C@H](CC(C)C)NC(=O)C2(CCOCC2)NC1=O [GIP-322, Ac-Asp-Trp-5Clw-Hyp-Glu-leu-[Cys(2Lut)-Thp-Leu-Ser-Cys]-NH2] (Ac-DW[Trp(5-Cl)][Hyp]E[dL]C[Thp]LSC-NH2; linker 7-11 via Pyridine(2,6-diCH2))
100 to 794 | CC[C@H](C)[C@@H]1NC(=O)[C@H](CC(C)C)NC(=O)C2(CCOCC2)NC(=O)[C@@H](NC(=O)[C@@H](CC(C)C)NC(=O)[C@H](CCC(=O)O)NC(=O)[C@@H]2C[C@@H](O)CN2C(=O)[C@H](Cc2ccc(Cl)c(Cl)c2)NC(=O)[C@H](Cc2ccc(Cl)c(Cl)c2)NC(=O)[C@H](CC(=O)O)NC(C)=O)CSCc2cccc(n2)CSC[C@@H](C(N)=O)NC1=O [GIP-323, Ac-Asp-Eaa-Eaa-Hyp-Glu-leu-[Cys(2Lut)-Thp-Leu-Ile-Cys]-NH2] (Ac-D[Phe(3,4-Cl2)][Phe(3,4-Cl2)][Hyp]E[dL]C[Thp]LIC-NH2; linker 7-11 via Pyridine(2,6-diCH2))
> 1000 | CC[C@H](C)[C@@H]1NC(=O)[C@H](CC(C)C)NC(=O)[C@H](C)NC(=O)[C@@H](NC(=O)[C@H](CC(C)C)NC(=O)[C@H](CCC(=O)O)NC(=O)[C@@H]2CCCN2C(=O)[C@H](Cc2c[nH]c3ccccc23)NC(=O)[C@H](Cc2c[nH]c3ccccc23)NC(C)=O)CSCc2cccc(c2)CSC[C@@H](C(N)=O)NC1=O [GIP-324, Ac-Trp-Trp-Pro-Glu-Leu-[Cys(3MeBn)-Ala-Leu-Ile-Cys]-NH2] (Ac-WWPELCALIC-NH2; linker 6-10 via mXylylene)
> 1000 | CC[C@H](C)[C@@H]1NC(=O)[C@H](CC(C)C)NC(=O)[C@H](C)NC(=O)[C@@H](NC(=O)[C@H](CC(C)C)NC(=O)[C@H](CCC(=O)O)NC(=O)[C@@H]2CCCN2C(=O)[C@H](Cc2c[nH]c3ccccc23)NC(C)=O)CSCc2cccc(c2)CSC[C@@H](C(N)=O)NC1=O [GIP-325, Ac-Trp-Pro-Glu-Leu-[Cys(3MeBn)-Ala-Leu-Ile-Cys]-NH2] (Ac-WPELCALIC-NH2; linker 5-9 via mXylylene)
> 1000 | CC[C@H](C)[C@@H]1NC(=O)[C@H](CC(C)C)NC(=O)[C@H](C)NC(=O)[C@@H](NC(=O)[C@H](CC(C)C)NC(=O)[C@H](CCC(=O)O)NC(=O)[C@@H]2CCCN2C(C)=O)CSCc2cccc(c2)CSC[C@@H](C(N)=O)NC1=O [GIP-326, Ac-Pro-Glu-Leu-[Cys(3MeBn)-Ala-Leu-Ile-Cys]-NH2] (Ac-PELCALIC-NH2; linker 4-8 via mXylylene)
> 1000 | CC[C@H](C)[C@@H]1NC(=O)[C@H](CC(C)C)NC(=O)[C@H](C)NC(=O)[C@@H](NC(=O)[C@H](CC(C)C)NC(=O)[C@H](CCC(=O)O)NC(C)=O)CSCc2cccc(c2)CSC[C@@H](C(N)=O)NC1=O [GIP-327, Ac-Glu-Leu-[Cys(3MeBn)-Ala-Leu-Ile-Cys]-NH2] (Ac-ELCALIC-NH2; linker 3-7 via mXylylene)
> 1000 | CC[C@H](C)[C@@H]1NC(=O)[C@H](CC(C)C)NC(=O)[C@H](C)NC(=O)[C@@H](NC(=O)[C@H](CC(C)C)NC(=O)[C@H](CCC(=O)O)NC(=O)[C@H]2CCCN2C(=O)[C@H](Cc2c[nH]c3ccccc23)NC(=O)[C@H](Cc2c[nH]c3ccccc23)NC(=O)[C@H](CC(=O)O)NC(=O)[C@H](Cc2ccc(O)cc2)NC(=O)[C@@H](N)CCSC)CSCc2cccc(c2)CSC[C@@H](C(N)=O)NC1=O [GIP-328, H-Met-Tyr-Asp-Trp-Trp-pro-Glu-Leu-[Cys(3MeBn)-Ala-Leu-Ile-Cys]-NH2] (H-MYDWW[dP]ELCALIC-NH2; linker 9-13 via mXylylene)
> 1000 | CC[C@H](C)[C@@H]1NC(=O)[C@H](CC(C)C)NC(=O)[C@H](C)NC(=O)[C@@H](NC(=O)[C@H](CC(C)C)NC(=O)[C@H](CCC(=O)O)NC(=O)[C@@H]2CCCN2C(=O)[C@@H](Cc2c[nH]c3ccccc23)NC(=O)[C@H](Cc2c[nH]c3ccccc23)NC(=O)[C@H](CC(=O)O)NC(=O)[C@H](Cc2ccc(O)cc2)NC(=O)[C@@H](N)CCSC)CSCc2cccc(c2)CSC[C@@H](C(N)=O)NC1=O [GIP-329, H-Met-Tyr-Asp-Trp-trp-Pro-Glu-Leu-[Cys(3MeBn)-Ala-Leu-Ile-Cys]-NH2] (H-MYDW[dW]PELCALIC-NH2; linker 9-13 via mXylylene)
> 1000 | CC[C@H](C)[C@@H]1NC(=O)[C@@H](CC(C)C)NC(=O)[C@H](C)NC(=O)[C@@H](NC(=O)[C@H](CC(C)C)NC(=O)[C@H](CCC(=O)O)NC(=O)[C@@H]2CCCN2C(=O)[C@H](Cc2c[nH]c3ccccc23)NC(=O)[C@H](Cc2c[nH]c3ccccc23)NC(=O)[C@H](CC(=O)O)NC(=O)[C@H](Cc2ccc(O)cc2)NC(=O)[C@@H](N)CCSC)CSCc2cccc(c2)CSC[C@@H](C(N)=O)NC1=O [GIP-330] (H-MYDWWPELCA[dL]IC-NH2; linker 9-13 via mXylylene)
> 1000 | CC[C@H](C)[C@@H]1NC(=O)[C@H](CC(C)C)NC(=O)[C@H](C)NC(=O)[C@@H](NC(=O)[C@H](CC(C)C)NC(=O)[C@H](CCC(=O)O)NC(=O)[C@@H]2CCCN2C(=O)[C@H](Cc2c[nH]c3ccccc23)NC(=O)[C@H](Cc2c[nH]c3ccccc23)NC(=O)[C@H](CC(=O)O)NC(=O)[C@H](Cc2ccc(O)cc2)NC(=O)[C@@H](N)CCSC)CSCc2ccc(cc2)CSC[C@@H](C(N)=O)NC1=O [GIP-331] (H-MYDWWPELCALIC-NH2; linker 9-13 via pXylylene)
> 1000 | CC[C@H](C)[C@@H]1NC(=O)[C@H](CC(C)C)NC(=O)[C@H](C)NC(=O)[C@@H](NC(=O)[C@H](CC(C)C)NC(=O)[C@H](CCC(=O)O)NC(=O)[C@@H]2CCCN2C(=O)[C@H](Cc2c[nH]c3ccccc23)NC(=O)[C@H](Cc2c[nH]c3ccccc23)NC(=O)[C@H](C)NC(=O)[C@H](Cc2ccc(O)cc2)NC(=O)[C@@H](N)CCSC)CSCc2cccc(c2)CSC[C@@H](C(N)=O)NC1=O [GIP-332] (H-MYAWWPELCALIC-NH2; linker 9-13 via mXylylene)
> 1000 | CC[C@H](C)[C@@H]1NC(=O)[C@H](CC(C)C)NC(=O)[C@H](C)NC(=O)[C@@H](NC(=O)[C@H](CC(C)C)NC(=O)[C@H](CCC(=O)O)NC(=O)[C@@H]2CCCN2C(=O)[C@H](Cc2c[nH]c3ccccc23)NC(=O)[C@H](C)NC(=O)[C@H](CC(=O)O)NC(=O)[C@H](Cc2ccc(O)cc2)NC(=O)[C@@H](N)CCSC)CSCc2cccc(c2)CSC[C@@H](C(N)=O)NC1=O [GIP-333] (H-MYDAWPELCALIC-NH2; linker 9-13 via mXylylene)
> 1000 | CC[C@H](C)[C@@H]1NC(=O)[C@H](CC(C)C)NC(=O)[C@H](C)NC(=O)[C@@H](NC(=O)[C@H](CC(C)C)NC(=O)[C@H](CCC(=O)O)NC(=O)[C@@H]2CCCN2C(=O)[C@H](C)NC(=O)[C@H](Cc2c[nH]c3ccccc23)NC(=O)[C@H](CC(=O)O)NC(=O)[C@H](Cc2ccc(O)cc2)NC(=O)[C@@H](N)CCSC)CSCc2cccc(c2)CSC[C@@H](C(N)=O)NC1=O [GIP-334] (H-MYDWAPELCALIC-NH2; linker 9-13 via mXylylene)
> 1000 | CC[C@H](C)[C@@H]1NC(=O)[C@H](CC(C)C)NC(=O)[C@H](C)NC(=O)[C@@H](NC(=O)[C@H](CC(C)C)NC(=O)[C@H](C)NC(=O)[C@@H]2CCCN2C(=O)[C@H](Cc2c[nH]c3ccccc23)NC(=O)[C@H](Cc2c[nH]c3ccccc23)NC(=O)[C@H](CC(=O)O)NC(=O)[C@H](Cc2ccc(O)cc2)NC(=O)[C@@H](N)CCSC)CSCc2cccc(c2)CSC[C@@H](C(N)=O)NC1=O [GIP-335] (H-MYDWWPALCALIC-NH2; linker 9-13 via mXylylene)
